# Data as given in PMC9560627, “Targeting Echinococcus multilocularis PIM kinase for improving anti-parasitic chemotherapy” (PLoS Neglected Tropical Diseases, 2022).
# Read-outs that look alike come from different tables or passages of the source.
# Key:
# E. multilocularis MV = experiment: Mature metacestode vesicle (MV) assay, structural integrity by microscopy; format: cell-based, Echinococcus multilocularis; details: for structural vesicle damage of MV (screen of 20 in silico compounds): 3 and 10 μM
# Procedure: In mature MV assays, 10 individual MV each were cultured in 2 ml of conditioned medium (100% A6 medium) in the presence of inhibitors in 12 well plates under axenic conditions for 28 d as described in [39]. […] Structural integrity of MV was assessed using an optical microscope (Nikon eclipse Ts2-FL). Experimental set-up and execution of inhibitor studies and structural integrity assessment was performed by independent experimenters. Criteria for intact or damaged vesicles were essentially as previously described. All experiments were performed using 3 biological replicates. Percentages of structurally intact vesicles were statistically analyzed with one-way ANOVA with Dunnet’s multiple comparison tests in Graphpad prism 9.3.1(Graphpad software).
# E. multilocularis PC [1] = experiment: Cell viability assay (Cell Titer Glo 2.0) on E. multilocularis primary cell cultures (PC), initial kinase inhibitor screen; format: cell-based, Echinococcus multilocularis; details: for inhibition at 10 µM: Echinococcus multilocularis, read-out: growth inhibition of Echinococcus PC
# E. multilocularis PC [2] = experiment: Vesicle formation assay (MV formation from PC); format: cell-based, Echinococcus multilocularis
# Procedure: In vesicle formation assays, PC were isolated as described above and 100 U of isolated PC (~1.5×10^4 cells/well) were seeded in 96 well plates with 200 μl of conditioned medium (50% A6 medium + 50% B4 medium) for 21 d under nitrogen atmosphere. The number of newly formed vesicles was counted using an optical microscope (Nikon eclipse Ts2-FL) essentially as previously described. Kruskal-Wallis test followed by Dunn’s multiple comparisons test was used in GraphPad Prism version 9.3.1(Graphpad software) to analyze the difference of vesicle numbers in control and treatment groups. In this analysis, all concentrations were compared with the negative control DMSO. Experiments with SGI-1776 and CX-6258 were performed in three biological and technical replicates. Experiments with SGI-1776 and Z196138710 were performed in three technical replicates.
# HEK293T cells = experiment: Mammalian cell toxicity, Cell Titer Glo 2.0 viability; format: cell-based, human; details: for IC50: read-out: IC50 against HEK293T cells
# Procedure: (§1) The toxicity of inhibitors against mammalian cells was evaluated by treatment of the commonly used cell lines HEK293T [42] and HepG2 [43], which were cultivated and passaged as described in [43, 44]. […] 24 h after seeding, 50 μl of DMEM+GlutaMAX-I including FBS and inhibitors were added. Final concentrations of inhibitors were adjusted to 0–30 μM as indicated, DMSO alone was used as a control. Plates were incubated for 3 d under aerobic conditions and cell viability was measured using the Cell Titer Glo 2.0 system (Promega) according to the manufacturer’s instructions. Luminescence was measured by a Spectramax iD3 Multi-mode Microplate reader (Molecular Devices). Three independent experiments with three technical replicates were carried out for both cell lines. Luminescence units were normalized to the DMSO control of each independent experiment and expressed as percentage of luminescence unit. One-Way-ANOVA test followed by Tukey’s multiple comparisons test was used in GraphPad Prism version 9.3.1 (Graphpad software) for statistical analysis. Based on the cell viability data, dose-response curves were drawn and IC50 (best fit value) were calculated using GraphPad Prism version 9.3.1 (Graphpad software).
# HepG2 cells = experiment: as above; format: cell-based, human; details: for IC50: read-out: IC50 against HepG2 cells
# Procedure: as §1
# human Pim-3 = details: cited from earlier work
# FLT3 = details: cited from earlier work
# haspin = details: cited from earlier work
# human Pim-1 = details: cited from earlier work
# human Pim-2 = details: cited from earlier work
# [3] = cited from earlier work
# [4] = test system: human Ether-á-go-go-related (hERG) cardiac ion channel; details: cited from earlier work
# [5] = set-up: method as in PMID 30370255; details: non-Hodgkin lymphoma and prostate cancer; cited from earlier work
# [6] = test system: a broad variety of other cell types, including chronic lymphocytic leukemia cells; set-up: method as in PMID 22052829, PMID 19734450; details: read-out: in vitro IC50 against a broad variety of other cell types; cited from earlier work
# solid tumour xenografts = test system: solid tumour xenografts; set-up: method as in PMID 22052829, PMID 25589932; details: mice, plasma concentrations around 3 μM free compound; cited from earlier work
# E. multilocularis = test system: E. multilocularis; set-up: method as in PMID 26389799; details: cited from earlier work
# Echinococcus = details: ref PMID:9593125; cited from earlier work
# [7] = response to reviewers, ref literature, not numbered at the place
smiles,measurement,setting,value
CCC1CN(Cc2nc3cc(OC)c(OC)cc3c(=O)[nH]2)CCO1 (stereo not drawn) [Z354576500],structural vesicle damage of MV (screen of 20 in silico compounds),E. multilocularis MV; 28 d,highly effective in inducing structural vesicle damage
Cc1nc(Nc2ncc(C(=O)Nc3c(C)cccc3Cl)s2)cc(N2CCN(CCO)CC2)n1 [Dasatinib],effect on parasite PC proliferation,"E. multilocularis PC [1]; 10 μM, 3 d and 7 d",stimulated parasite cell proliferation
"COc1cc(CNc2ncnc3ccsc23)ccc1OC(F)F [Z196138710, N-(4-(difluoromethoxy)-3-methoxybenzyl)-thieno-[3,2-d]-pyrimidin-4-amine]","concentration effective against the parasite, mature MV",E. multilocularis MV,10 µM
same,structural disintegration of MV,"E. multilocularis MV; 10 μM, 28 d",100%
same,structural vesicle damage of MV (screen of 20 in silico compounds),E. multilocularis MV; 28 d,highly effective in inducing structural vesicle damage
same,"concentration effective against the parasite, stem cell cultures",E. multilocularis PC [2],3 µM
same,MV formation from stem cells (PC),"E. multilocularis PC [2]; 10 μM, 21 d",completely prevented MV formation
same,"MV development from primary cells, comparison with SGI-1776","E. multilocularis PC [2]; different concentrations, 21 d",effects similar to those of SGI-1776
same,inhibition of HEK293T cells,"HEK293T cells; 30 and 10 μM, 3 d",40–60%
same,IC50,"HEK293T cells; Homo sapiens, HEK-293T, 72 h, 3 d, cell viability",11000 nM
same,inhibition of HepG2 cells,"HepG2 cells; 30 and 10 μM, 3 d",40–60%
same,IC50,"HepG2 cells; Homo sapiens, HepG2, 72 h, 3 d, cell viability",16000 nM
CN1CCCN(C(=O)c2cccc(-c3ccc(/C=C4/C(=O)Nc5ccc(Cl)cc54)o3)c2)CC1 [CX-6258],IC50,human Pim-3; read-out: IC50 Pim-3,16 nM
same,effect on structural integrity of mature MV,"E. multilocularis MV; 3 μM, 28 d",did not lead to statistically significant effects
same,effect on structural integrity of mature MV,"E. multilocularis MV; 10 μM, 28 d",drastic loss of structural integrity of all
same,IC50,FLT3; read-out: IC50 FLT3,134 nM
same,MV formation from stem cells (PC),"E. multilocularis PC [2]; 3 μM, 21 d",drastically affected MV formation
same,MV formation from stem cells (PC),"E. multilocularis PC [2]; concentrations higher than 3 μM, 21 d",completely inhibited MV development
same,effect on HEK293T cells,"HEK293T cells; 30 and 10 μM, 3 d",fully eliminated
same,IC50,"HEK293T cells; 3 d, cell viability",~1000 nM
same,effect on HepG2 cells,"HepG2 cells; 30 and 10 μM, 3 d",fully eliminated
same,IC50,"HepG2 cells; 3 d, cell viability",~1000 nM
same,activity against haspin kinase,haspin; melanoma cell lines,much higher IC50 values than against Pim-1 and Pim-3
same,IC50,human Pim-2; read-out: IC50 Pim-2,25 nM
CN1CCC(CNc2ccc3ncc(-c4cccc(OC(F)(F)F)c4)n3n2)CC1 [SGI-1776],IC50,human Pim-3; read-out: IC50 against human Pim-3,69 nM
same,compound bound to plasma proteins,[3]; in vivo application in mice,around 95%
same,well tolerated plasma concentration of free compound (not bound to plasma proteins),[3]; mice,around 3 μM
same,drug bound to human plasma protein,[3]; [7],about 95%
same,cause of toxicity in clinical trials: hERG,[4],off-target effects
same,inhibition at 10 µM,E. multilocularis PC [1]; 72 h,~60%
same,inhibition at 10 µM,E. multilocularis PC [1]; 168 h,~80%
same,effect on structural integrity of mature MV,"E. multilocularis MV; 3 μM, 28 d",did not lead to statistically significant effects
same,effect on structural integrity of mature MV,"E. multilocularis MV; 10 μM, 28 d",almost all
same,IC50,FLT3; read-out: IC50 against FLT3,44 nM
same,toxicity in clinical phase I trials,[5],toxicity in cardiac electric cycle prolongation
same,MV formation from stem cells (PC),"E. multilocularis PC [2]; 3 μM, 21 d",did not lead to statistically significant effects
same,MV formation from stem cells (PC),"E. multilocularis PC [2]; 10 μM, 21 d",almost completely
same,MV formation from stem cells (PC),"E. multilocularis PC [2]; 30 μM, 21 d",completely prevented
same,effect on HEK293T cells,"HEK293T cells; 30 and 10 μM, 3 d",fully eliminated
same,IC50,"HEK293T cells; Homo sapiens, HEK-293T, 72 h",~1000 nM
same,effect on HepG2 cells,"HepG2 cells; 30 and 10 μM, 3 d",fully eliminated
same,IC50,"HepG2 cells; Homo sapiens, HepG2, 72 h",~1000 nM
same,IC50,haspin; read-out: IC50 against haspin,34 nM
same,IC50,human Pim-2; read-out: IC50 against human Pim-2,363 nM
same,IC50,[6],~3000 nM
same,efficacy against solid tumour xenografts,solid tumour xenografts,effective against solid tumour xenografts in mice
Cc1noc(C)c1COc1cccc(C(=O)N2CCC(C(N)=O)CC2)c1 [Z30898879],structural vesicle damage of MV (screen of 20 in silico compounds),E. multilocularis MV; 28 d,highly effective in inducing structural vesicle damage
COC(=O)Nc1nc2ccc(C(=O)c3ccccc3)cc2[nH]1 [mebendazole],efficacy against the parasite in AE patients,E. multilocularis,effective against the parasite in only one third of cases
same,in vitro active concentrations,Echinococcus,1 to 10 µM
CCCSc1ccc2nc(NC(=O)OC)[nH]c2c1 [albendazole],efficacy against the parasite in AE patients,E. multilocularis,effective against the parasite in only one third of cases
CN(C)C(=O)CN1CCN(Cc2nc3scc(-c4ccccc4Cl)c3c(=O)[nH]2)CC1 [Z65225039],structural vesicle damage of MV (screen of 20 in silico compounds),E. multilocularis MV; 28 d,highly effective in inducing structural vesicle damage
